# Values quoted from earlier work, collected in patent US10525099B2, “Orally disintegrating solid pharmaceutical dosage unit containing a partus control substance” (Oxytone Bioscience B.V., priority 2014, dated 2020).
# Bridge positions count the residues as written; N and C are the ends. Square brackets hold non-standard residues; d marks the D form. Peptide text beside a SMILES is read from it. Orn = NCCC[C@H](N)C(=O)O; Mpa = O=C(O)CCS
# What was measured:
# [1] = in vivo
# [2] = lyophilized
half-life in the blood [1],time stable at room temperature [2] [weeks],SMILES
about three,,"CC[C@H](C)[C@@H]1NC(=O)[C@H](Cc2ccc(O)cc2)NC(=O)[C@@H](N)CSSC[C@@H](C(=O)N2CCC[C@H]2C(=O)N[C@@H](CC(C)C)C(=O)NCC(N)=O)NC(=O)[C@H](CC(N)=O)NC(=O)[C@H](CCC(N)=O)NC1=O [Oxytocin, cysteine-tyrosine-isoleucine-glutamine-asparagine-cysteine-proline-leucine-glycine-amide]"
,3,CCOc1ccc(C[C@H]2NC(=O)CCSSC[C@@H](C(=O)N3CCC[C@H]3C(=O)N[C@@H](CCCN)C(=O)NCC(N)=O)NC(=O)[C@H](CC(N)=O)NC(=O)[C@H]([C@@H](C)O)NC(=O)[C@H]([C@@H](C)CC)NC2=O)cc1 [atosiban] ([Mpa][dY](Et)ITNCP[Orn]G-NH2; disulfide 1-6)
